Laboratory results reported in US20040254178A1, “Substituted heterocyclic compounds and methods of use” (Amgen Inc., priority 2003, published 2004).

Tested on: LPS induced TNF release
Test: Lipopolysaccharide-Activated THP1 Cell TNF Production Assay
Assay type: cell-based
Conditions: Homo sapiens, THP-1, THP1 cells, 3 h at 37° C., secreted TNF-α read by ECL
Method: Lipopolysaccharide-Activated THP1 Cell TNF Production Assay
THP1 cells are resuspended in fresh THP1 media (RPMI 1640, 10% heat-inactivated FBS, 1XPGS, 1XNEAA, plus 30 μM βME) at a concentration of 1E6/mL. One hundred microliters of cells per well are plated in a polystyrene 96-well tissue culture. One microgram per mL of bacterial LPS is prepared in THP1 media and is transferred to the wells. Test compounds are dissolved in 100% DMSO and are serially diluted 3 fold in a polypropylene 96-well microtiter plate (drug plate). HI control and LO control wells contain only DMSO. One microliter of test compound from the drug plate followed by 10 μL of LPS are transferred to the cell plate. The treated cells are induced to synthesize and secrete TNF-α at 37° C. for 3 h. Forty microliters of conditioned media are transferred to a 96-well polypropylene plate containing 110 μL of ECL buffer (50 mM Tris-HCl pH 8.0, 100 mM NaCl, 0.05% Tween 20, 0.05% NaN3 and 1% FBS) supplemented with 0.44 nM MAB610 monoclonal Ab (R&D Systems), 0.34 nM ruthenylated AF210NA polyclonal Ab (R&D Systems) and 44 μg/mL sheep anti-mouse M280 Dynabeads (Dynal). After a 2 h incubation at room temperature with shaking, the reaction is read on the ECL M8 Instrument (IGEN Inc.). A low voltage is applied to the ruthenylated TNF-α immune complexes, which in the presence of TPA (the active component in Origlo), results in a cyclical redox reaction generating light at […]. The amount of secreted TNF-α in the presence of compound compared with that in the presence of DMSO vehicle alone (HI control) is calculated using the formula: % control (POC)=(cpd−average LO)/(average HI−average LO)*100. Data (consisting of POC and inhibitor concentration in μM) is fitted to a 4-parameter equation (y=A+((B−A)/(1+((x/C)^D))), where A is the minimum y (POC) value, B is the maximum y (POC), C is the x (cpd concentration) at the point of inflection and D is the slope factor) using a Levenburg-Marquardt non-linear regression algorithm.

IC50 [µM] | Compound
≤ 20 | Cc1c(C2CCN(C(=O)[C@@H](C)O)CC2)nnc(-c2cccc(C(F)(F)F)c2)c1-c1ccnc(NC(C)c2ccccc2)n1 (stereo in doubt) [2-Hydroxy-1-{4-[4-methyl-5-[2-(1-phenyl-ethylamino)-pyrimidin-4-yl]-6-(3-trifluoromethyl-phenyl)-pyridazin-3-yl]-piperidin-1-yl}-propan-1-one]
≤ 20 | Cc1c(C2CCN(C(=O)OCc3ccccc3)CC2)nnc(-c2cccc(C(F)(F)F)c2)c1-c1ccnc(NC(C)c2ccccc2)n1 (stereo not drawn) [4-[4-Methyl-5-[2-(1-phenyl-ethylamino)-pyrimidin-4-yl]-6-(3-trifluoromethylphenyl)-pyridazin-3-yl]-piperidine-1-carboxylic acid benzyl ester]
≤ 20 | Cc1c(C2CCNCC2)nnc(-c2cccc(C(F)(F)F)c2)c1-c1ccnc(NC(C)c2ccccc2)n1 (stereo not drawn) [{4-[5-Methyl-6-piperidin-4-yl-3-(3-trifluoromethyl-phenyl)-pyridazin-4-yl]-pyrimidin-2-yl}-(1-phenyl-ethyl)-amine]
